Measured values taken from patent EP0411184B1, “Ascorbic acid derivative” (NIPPON HYPOX LABORATORIES INCORPORATED, priority 1989, dated 1991).

Experiment: Antioxidant action using stable radicals: reduction activity of DPPH (M. S. Blois method)
Type: biochemical
Settings: 0.1 mM DPPH solution in ethanol, absorbance at 517 nm after 20 minutes, difference from solvent control (0.5% or less DMF); read-out: 50% radical eliminating concentration
Method: Test example 1 (Antioxidant action examined by using stable radicals)
Reduction activity of α,α-diphenyl-β-picrylhydrazyl (DPPH) which was a stable free radical was examined according to the M. S. Blois method (Nature, vol. 181, page 1199, 1958) and used as an index to antioxidant action. Thus, specimens were added to 3 mℓ of a 0.1 mM DPPH solution in ethanol, and absorbance at a wavelength of 517 nm was measured using a spectrophotometer after 20 minutes. The difference in absorbance from the solvent control [0.5% or less of dimethylformamide (DMF)] was taken as the reduction activity.

SMILES	IC50 [µM]
CCOC(=O)CCCCOC1=C(O)C(=O)O[C@@H]1[C@@H](O)CO [compound 105]	20
CCCCCCCCOC1=C(O)C(=O)O[C@@H]1[C@@H](O)CO [compound 103]	19
O=C(O)CCCOC1=C(O)C(=O)O[C@@H]1[C@@H](O)CO [compound 107]	27
O=C(O)CCCCCCCCCCOC1=C(O)C(=O)O[C@@H]1[C@@H](O)CO [compound 114]	24
CCCCCCCCCCCCCCCCCCOC1=C(O)C(=O)O[C@@H]1[C@@H](O)CO [compound 101, reference compound]	32
CCCCOC1=C(O)C(=O)O[C@@H]1[C@@H](O)CO [compound 104]	23
CCCCOC(=O)COC1=C(O)C(=O)O[C@@H]1[C@@H](O)CO [compound 109]	18
CCCCCCCCCCOC(=O)COC1=C(O)C(=O)O[C@@H]1[C@@H](O)CO [compound 110]	23
CCOC(=O)COC1=C(O)C(=O)O[C@@H]1[C@@H](O)CO [compound 111]	22
O=C1O[C@H]([C@@H](O)CO)C(OCC(=O)c2ccccc2)=C1O [compound 112, L-3-O-benzoylmethylascorbic acid]	23
O=C1O[C@H]([C@@H](O)CO)C(OCc2cccnc2)=C1O [compound 113, L-3-O-(3-picoyl)ascorbic acid]	23
CCOC(=O)C(C)OC1=C(O)C(=O)O[C@@H]1[C@@H](O)CO (stereo partly drawn) [compound 108]	19
CC(=O)COC1=C(O)C(=O)O[C@@H]1[C@@H](O)CO [compound 115]	22
CCOC(=O)CCCOC1=C(O)C(=O)O[C@@H]1[C@@H](O)CO [compound 106]	21
CCCCCCCCCCCCOC1=C(O)C(=O)O[C@@H]1[C@@H](O)CO [compound 102]	18
